Test results published in US12576103B2 (priority 2020, dated 2026).
“Also recorded” adds a separate entry of the source.

Experiments:
[1] = test system: ciliary motility; conditions: cited from earlier work
[2] = test system: SARS-COV-2; assay: microbe, parasite or virus in culture; assay type: cell-based; conditions: for SARS-CoV-2 infectivity of VERO cells: at concentrations which were not cytotoxic
[3] = test system: VERO cells; assay: Non-virus related cytotoxicity in VERO cells by light microscopy; assay type: cell-based; conditions: at the inhibiting concentrations (LMWH 125 μM, N-acetylcysteine 25 mM)
Experimental: For experiments in which infectivity was being tested, either VERO cells in media or SARS-COV-2 viral particles were incubated with potential inhibitors for one hour. Then viral particles were added to VERO cells and incubation continued for up to seven days. Cytotoxicity and viral-induced cytopathological effects were examined by light microscopy.
In order to test if AT-H201 had antiviral activity against SARS-COV-2 the standard VERO cells assay was performed. Test compounds were incubated either with the virus, to simulate antibody-like surface binding, or with the cells, to simulate either cell surface changes or to act intracellularly. Serial dilutions were conducted and the cytopathic effect (CPE) was observed by microscopy. Non-virus related cytotoxicity, if present was also noted.

[4] = aqueous solution at physiologic pH; cited from earlier work
[5] = Nebulized anticoagulants in preclinical models for lung injury; assay type: in vivo
Excerpt: Nebulized anticoagulants attenuate pulmonary coagulopathy in preclinical studies using various models for lung injury. Effects on inflammation are less consistent.

[6] = compared with controls
Excerpt: Inhalation injury is a major cause of morbidity and mortality in patients with burns. Presence of airways injury adds to the need of fluid supplementation, increases risk of pulmonary complications. Due to many mechanisms involved in pathophysiology the treatment is complex. Among them the formation of fibrin casts inside airways constitutes a prominent element. The material residing in tracheobronchial tree causes ventilation-perfusion mismatch, complicates mechanical ventilation, provides a medium for bacterial growth. Inhaled anticoagulation regimens employing heparin in management of inhalation injury are tested. Simultaneously safety, especially in connection with possible bleeding risk, is measured.
Data are collected in patients receiving nebulized heparin and in historical controls. Data is analyzed separately with 1) all subjects included and 2) with subjects who died/were discharged on the ventilator excluded.

[7] = Nebulized heparin in patients with pulmonary infection or lung injury (Example 6); assay type: in vivo
Excerpt: Nebulized heparin also affects various physiologic parameters and other outcomes, in particular during pulmonary infection and inhalation trauma.
Reduction of pulmonary coagulopathy at dosages ≥400,000 U/day heparin is observed.
A single dosage of nebulized heparin prior to cardiopulmonary bypass surgery decreases atelectasis and improves CO2 elimination directly after the operation. Nebulized heparin increases the number of ventilator-free days following administration.

[8] = Phase 1 clinical study of nebulized heparin in volunteers (Example 4)
Experimental: This example describes the safety and efficacy of nebulized heparin and NAC in normal subjects. A Phase 1 clinical study of nebulized heparin is conducted to investigate the safety of increasing doses of a well-defined lower respiratory tract (LRT) dose of inhaled heparin with regard to pulmonary function and coagulation. Ten volunteers inhale heparin from Sidestream jet nebulizers loaded with 100,000, 200,000, 300,000 or 400,000 International Units (ID) of heparin.

[9] = test system: virus that contain PBSC sequences; conditions: in vitro; cited from earlier work
[10] = nebulized, presence of pulmonary infection or lung injury

**Q.** With “2-alkyl-4-hydroxyquinolines [pyo compound]” as the molecule, how does the “concentration producing ciliostasis / inhibiting ciliary motility” value [1] read?
**A.** The value was 50 µg/mL.

**Q.** With CCN(CCO)CCCC(C)Nc1ccnc2cc(Cl)ccc12 (centres unmarked) [Hydroxychloroquine, hydroxychloroquine] as the molecule, how does the inhibition at 16 µM ([2]; Severe acute respiratory syndrome coronavirus 2, Vero, at 16 μM, incubation with cells, read-out: Inhibition of Virus Infection) read?
**A.** The inhibition at 16 µM was 100%.

**Q.** With CC(=O)N[C@@H](CS)C(=O)O [NAC, N-acetylcysteine] as the molecule, how does the Cytotoxicity [3] read?
**A.** Its Cytotoxicity is “not seen”.

**Q.** And the inhibition at 25000 µM ([2]; Severe acute respiratory syndrome coronavirus 2, Vero, at 25 mM, incubation with cells, read-out: Inhibition of Virus Infection)?
**A.** Its inhibition at 25000 µM is 100%.

**Q.** What about the inhibiting viral entry ([2]; at 25 mM) of the same molecule?
**A.** Its inhibiting viral entry is “effective”.

**Q.** What about the inhibition of infectivity ([2]; at 25 mM, incubated with cells) of the same molecule?
**A.** The inhibition of infectivity was “completely inhibit”.

**Q.** What about the “SARS-CoV-2 infectivity of VERO cells” value [2] of the same molecule?
**A.** Its value is “inhibited”.

**Q.** What about the inhibition of infectivity ([2]; incubated with SARS-COV-2 (virus)) of the same molecule?
**A.** The inhibition of infectivity was “did not inhibit”.

**Q.** With CCN(CC)/[N+]([O-])=N/O.CCNCC [diethylamine/NO] as the molecule, how does the “rate of NO release” value [4] read?
**A.** The value was < 3 min.

**Q.** With NCCN(CCN)/[N+]([O-])=N/O [diethylenetriamine/NO] as the molecule, how does the “rate of NO release” value [4] read?
**A.** The value was “approximately 20 hours”.

**Q.** For danaparoid, which systemic coagulation [5] is on record?
**A.** Its systemic coagulation is “reduce”.

**Q.** With enoxaparin [LMWH] as the molecule, how does the Cytotoxicity [3] read?
**A.** The Cytotoxicity was “not seen”.

**Q.** And the “inhibition of SARS-COV-2 infectivity” value ([2]; at 125 μM, SARS-COV-2 incubated with compound before VERO cell exposure)?
**A.** Its value is “complete inhibition”.

**Q.** And the “inhibition of viral cytopathic effects / SARS-COV-2 infectivity” value ([2]; at nanomolar concentrations, incubated with the virus or with the cells)?
**A.** The value was “completely inhibiting; also recorded: nanomolar efficacy”.

**Q.** And the inhibition of infectivity ([2]; either incubated with the virus or incubated with the cells)?
**A.** The inhibition of infectivity was “effective”.

**Q.** For heparin, which 28-day mortality [6] is on record?
**A.** The 28-day mortality was “no differences”.

**Q.** And the hospitalization length [6]?
**A.** The hospitalization length was “no differences”.

**Q.** And the “lung injury score during the first 7 days post injury” value [6]?
**A.** Its value is “no differences”.

**Q.** What about the ventilator-associated pneumonia rate [6] of the same molecule?
**A.** Its ventilator-associated pneumonia rate is “no differences”.

**Q.** What about the bleeding incidences ([7]; at dosages ≥100,000 U) of the same molecule?
**A.** Its bleeding incidences is “without affecting”.

**Q.** And the “dosages at which reduction of pulmonary coagulopathy is observed” value ([7]; nebulized)?
**A.** The value was ≥ 400,000 U/day.

**Q.** What about the “dosages at which systemic coagulation is affected” value ([7]; nebulized) of the same molecule?
**A.** Its value is ≥ 100,000 U.

**Q.** What about the mortality ([7]; nebulized) of the same molecule?
**A.** Its mortality is “does not increase”.

**Q.** What about the “number of ventilator-free days” value ([7]; nebulized) of the same molecule?
**A.** Its value is “increases”.

**Q.** And the “physiological parameters, such as arterial oxygenation or pulmonary compliance” value ([7]; nebulized)?
**A.** The value was “does not affect”.

**Q.** What about the systemic bleeding ([7]; nebulized) of the same molecule?
**A.** Its systemic bleeding is “does not cause; also recorded: does not result in differences”.

**Q.** What about the systemic coagulation ([7]; nebulized) of the same molecule?
**A.** Its systemic coagulation is “affects”.

**Q.** And the “anticoagulant effect in the lungs” value [7, 10]?
**A.** The value was “has an anticoagulant effect”.

**Q.** And the pulmonary inflammation [7, 10]?
**A.** Its pulmonary inflammation is “inhibits”.

**Q.** What about the atelectasis ([7]; single nebulized dosage prior to cardiopulmonary bypass surgery) of the same molecule?
**A.** Its atelectasis is “decreases”.

**Q.** What about the CO2 elimination ([7]; single nebulized dosage prior to cardiopulmonary bypass surgery, directly after the operation) of the same molecule?
**A.** Its CO2 elimination is “improves”.

**Q.** What about the systemic coagulation [5] of the same molecule?
**A.** The systemic coagulation was “reduce”.

**Q.** And the “Peak anti-Xa activity” value ([8]; 6 h after inhalation of 400,000 ID heparin)?
**A.** Its value is 0.113 ID/mL.

**Q.** And the APTT maximum ([8]; 6 h after inhalation of 400,000 ID heparin (p=0.05))?
**A.** The APTT maximum was 1.03.

**Q.** And the “anti-Xa compared to baseline values” ([8]; after 200,000, 300,000, and 400,000 ID heparin)?
**A.** The value was “increases”.

**Q.** And the safety of inhalation ([8]; delivery of 32,000 IU to the lower respiratory tract)?
**A.** Its safety of inhalation is “can safely be inhaled”.

**Q.** What about the “area under the curve of the anti-Xa activity” value ([8]; inhaled, 100,000-400,000 IU) of the same molecule?
**A.** The value was “increase with increasing doses”.

**Q.** What about the pulmonary function ([8]; inhaled, 100,000-400,000 IU loaded in nebulizer) of the same molecule?
**A.** The pulmonary function was “did not affect”.

**Q.** And the “infectivity of virus that contain PBSC sequences” value [9]?
**A.** Its value is “blocks infectivity”.

**Q.** What about the “SARS-CoV-2 infectivity of VERO cells” value [2] of the same molecule?
**A.** The value was “inhibited”.

**Q.** For rhamnolipid, which “effect of limited exposure of tracheal explants” value ([1]; associated with altered ciliary membranes) is on record?
**A.** Its value is “ciliostasis”.
